Experimental data taken from patent US7534558B2, “In vitro diagnostic test for enterovirus infections” (Universite de Lille 2 Droit Et Sante, priority 2003, dated 2009).
“Also recorded” adds a separate entry of the source.

Tests used:
[1] = test system: anti-VP4 antibodies in plasmas or serums; assay: ELISA of plasmas/serums on wells coated with VP4 protein or VP4 peptides; type: binding, human; conditions: for OD in ELISA assay compared with the VP4 protein: 40 serums from patients and 40 controls; for Mean value of OD ratio (OD / OD of negative control), ELISA: diluted 1/50, antigen coated at 5 μg/ml, 490 nm
Experimental: 40 plasmas from non diabetic patients and 40 plasmas or serums from diabetic patients were assayed.
The VP4 protein or the 5 VP4 peptides, diluted at 5 μg/ml in PBS buffer pH=7.4, are coated in the wells of a microplate of 96 wells (FluoroMunc, MaxiSorp surface, NUNC, Danemark) at the rate of 100 μl/well. The plates are incubated for 1 hour at 37° C. under humid atmosphere, then left for 24 h at room temperature. After 3 washings with PBS buffer, the wells are saturated with 300 μl of saturation buffer for 1 hour at 37° C. under humid atmosphere, before washing 3 times with the washing buffer. Then 250 μl of post-coating buffer are added to each well and the plates are incubated for 24 h at room temperature, then stored at 4° C. until use.
The wells coated with the VP4 protein or the different peptides VP4 are washed 3 times with washing buffer in order to remove the post-coating solution. Then 100 μl of the plasmas or serums diluted to 1/50th in dilution buffer are added to different wells and the plates are incubated for 1 hour at 37° C. under humid atmosphere. Simultaneously, a negative control well containing 100 μl of dilution buffer is carried out. Then the wells are washed 3 times with the washing solution and 100 μl of secondary antibody solution are added to each well. After incubation for 1 h at 37° C. under humid atmosphere, the wells are washed 5 times with the washing solution and 100 μl of substrate solution are added to each well. The plates are incubated for 30 minutes at room temperature and in the dark. The coloured reaction is stopped by addition of 25 μl of H2SO4 2M (1M) per well and the plates are read in a plate reader at a wavelength of 490 nm.
ODs obtained for each serum with the VP4 protein and the different peptides VP4 were divided by the OD obtained with the negative control. The following Tables show the mean +/− standard deviation of the rates of OD obtained with the two series of assayed serums (Patient=diabetic patients, Control=not diabetic). (see FIGS. 8 à 10)

[2] = test system: CVB4E2/plasma induced IFNα production by PBMCs; assay: CVB4E2/plasma induced IFNα production by PBMCs (DELFIA); type: cell-based, human
Experimental: (§1) VP4, H antigen or mock proteins were preincubated for 1 h at 37° C. at different concentrations with plasma from 5 healthy subjects diluted at optimal dilution (1/10 or 1/100 ). CVB3 or CVB4 were then added for 1 hour before incubating with PBMCs. […] On the contrary, the mock proteins isolated from non-infected Hep-2 cells have non effect on the IFNα production.
PBMCs separated from whole heparinated blood are distributed into microwells (plate of 96 wells), at the rate of 5 to 8.10^5 cell in 100 μl of supplemented RPMI medium by well. The infection of PBMC is made with a final volume of 100 μl of preparation in each well. After incubation for 48 h at 37° C. under a 5% CO2 atmosphere and 90% humidity, the supernatant is harvested and used immediately for IFNα dosage, or clarified by centrifugation for 10 minutes at 180×g and stored at −80° C. until dosage of the produced IFNα.
(§2) The concentration of the produced IFNα is determined with a sensitive and specific technique, the DELFIA method (Dissociation Enhanced Lanthanide FluoroImmmoAssay) (Rönnblom and al 1997).
(§3) The dosage of IFNα is performed following the DELFIA principle (Dissociation Enhanced Lanthanide FluoroImmunoAssay), based on a immunofluorescence in retarded phase method using antibodies binding IFNα of which one is labelled with europium. The use of an activation solution will release the europium conjugated with antibodies and emit a fluorescence proportional to the amount of produced IFNα and measured with a fluorometer (fluorometer LKB Wallac 1230 ARCOSO®, Turku, Finlande).
Monoclonal anti-IFNα antibodies LT 273 (5.4 mg/ml) and LT 293 (4.8 mg/ml) supplied by Dr Gunar Alm (Uppsala, Sweden) are coated to the bottom of the wells after an incubation for 12 hours at room temperature. These plates can be stored in a buffer at 4° C. or are used immediately. Standard samples of human IFNα are prepared with an “irrelevant” monoclonal mouse antibody IgG1 in order to establish the reference curve (10 measurements). The other samples to be analysed are added to each well (100 μl) with the dilution buffer and the “irrelevant” antibodies and incubated for 2 hours with gentle stirring at room temperature. The wells are washed 3 times with the washing solution. The antibody conjugated to europium (200 μl) is added to each well, left to incubate for 1 hour at room temperature with gentle stirring. The plate is washed 6 times with a washing solution. The activation solution (200 μl), added immediately after washing and left for 20 to 30 minutes for incubation in the well, causes a cleavage of the europium bound to the antibody fixed to IFNα, emitting a fluorescence measured with the fluorescence reader (LKB Wallac 1230 ARCUS®). The IFNα concentration will be calculated from the values of the measured fluorescence by means of the Graphpad program (San Diego, USA). The detection threshold of IFNα is of 0.5 IU/ml.
The plasma from a healthy donor (optimal dilution 1/10th or 1/100th) is pre-incubated for 1 hour at 37° C. with the recombinant VP4 protein of CVB4E2 (optimal concentration at 1 μg/ml). The whole is incubated again for one hour at 37° C. in the presence of the CVB4E2 virus (dilutions at 1/10th or 1/100th; viral titer at 10^13 TCID50/ml) then applied to the PBMCs, (5.10^5/well) to incubate for 48 hours.
In the same way, the plasma preparation preincubated for 1 hour and VP4 of CVB3 are incubated for 1 hour with CVB4E2 before infecting the PBMCs for 48 hours and determinating the amount of the produced IFNα.
The virus (CVB4E2 or CVB3) infected PBMCs in the presence of plasma are deemed to be positive controls of this experimentation. The negative controls are obtained with one well of PBMC alone, one well of virus CVB4B2 alone and one well of CVB3 alone.
The CVB4E2 induced IFNα production in cultures of PBMCs previously incubated in the presence of plasma from healthy subjects was measured. […]

[3] = test system: CVB3/plasma induced IFNα production by PBMCs; assay: CVB3/plasma induced IFNα production by PBMCs (DELFIA); type: cell-based, human; conditions: protein preincubated 1 h at 37°C at different concentrations with plasma from healthy subjects, then CVB3, then PBMCs
Experimental: as §1
PBMCs separated from whole heparinated blood are distributed into microwells (plate of 96 wells), at the rate of 5 to 8.10^5 cell in 100 μl of supplemented RPMI medium by well. The infection of PBMC is made with a final volume of 100 μl of preparation in each well. […]
as §2
as §3, with “Finlande). […]” for “Finlande).”

[4] = Patient = 40 serums of diabetic patients
[5] = Control = 40 serums of non diabetic patients

Compound: CSCC[C@H](N)C(=O)NCC(=O)N[C@@H](C)C(=O)N[C@@H](CCC(N)=O)C(=O)N[C@H](C(=O)N[C@@H](CO)C(=O)N[C@H](C(=O)N[C@@H](CCC(N)=O)C(=O)N[C@@H](CCCCN)C(=O)N[C@H](C(=O)NCC(=O)N[C@@H](C)C(=O)N[C@@H](Cc1c[nH]cn1)C(=O)N[C@@H](CCC(=O)O)C(=O)N[C@H](C(=O)N[C@@H](CO)C(=O)N[C@@H](CC(C)C)C(=O)N[C@@H](CO)C(=O)N[C@@H](C)C(=O)N[C@@H](CO)C(N)=O)[C@@H](C)O)[C@@H](C)O)[C@@H](C)O)C(C)C [VP4-P1]
- OD in ELISA assay compared with the VP4 protein [1]: comparable to the VP4 protein
- Mean value of OD ratio (OD / OD of negative control), ELISA [1, 4]: 1.450

Compound: CC[C@H](C)[C@H](NC(=O)[C@H](CC(N)=O)NC(=O)[C@@H](NC(=O)[C@H](Cc1ccc(O)cc1)NC(=O)[C@H](Cc1c[nH]cn1)NC(=O)[C@@H](NC(=O)[C@@H](NC(=O)[C@H](CO)NC(=O)[C@H](CC(N)=O)NC(=O)CNC(=O)[C@H](CO)NC(=O)[C@H](C)NC(=O)[C@H](CO)NC(=O)[C@H](CC(C)C)NC(=O)[C@H](CO)NC(=O)[C@@H](NC(=O)[C@H](CCC(=O)O)NC(=O)[C@H](Cc1c[nH]cn1)NC(=O)[C@H](C)NC(=O)CN)[C@@H](C)O)[C@@H](C)CC)[C@@H](C)CC)[C@@H](C)O)C(N)=O [VP4-P2]
- OD in ELISA assay compared with the VP4 protein [1]: comparable to the VP4 protein; also recorded: same behaviour as VP4; also recorded: recognizes a higher level of antibodies with diabetics as with non-diabetics
- Mean value of OD ratio (OD / OD of negative control), ELISA [1, 5]: 0.691
- Mean value of OD ratio (OD / OD of negative control), ELISA [1, 4]: 2.373
- Mean value of OD ratio (OD / OD of negative control), ELISA ([1]; Patient = 40 serums of diabetic patients, listed as Peptide P2): 2.376
- effect on IFNα production during infection of PBMCs with CVB4E2 in the presence of plasma ([2]; plasma 1/100th, peptide at three concentrations (FIG. 11, tracks 7 to 9)): diminution of the dose-dependent IFNα production

Compound: CC[C@H](C)[C@H](NC(=O)[C@H](CC(N)=O)NC(=O)[C@@H](NC(=O)[C@H](Cc1ccc(O)cc1)NC(=O)[C@H](Cc1c[nH]cn1)NC(=O)[C@@H](NC(=O)[C@@H](NC(=O)[C@H](CO)NC(=O)[C@H](CC(N)=O)NC(=O)CN)[C@@H](C)CC)[C@@H](C)CC)[C@@H](C)O)C(=O)N[C@@H](CC(N)=O)C(=O)N[C@@H](Cc1ccc(O)cc1)C(=O)N[C@@H](Cc1ccc(O)cc1)C(=O)N[C@@H](CCCCN)C(=O)N[C@@H](CC(=O)O)C(=O)N[C@@H](C)C(=O)N[C@@H](C)C(=O)N[C@@H](CO)C(=O)N[C@@H](CC(N)=O)C(=O)N[C@@H](CO)C(N)=O [VP4-P3]
- Mean value of OD ratio (OD / OD of negative control), ELISA [1, 4]: 0.712

Compound: CC(C)[C@H](NC(=O)[C@H](CC(=O)O)NC(=O)[C@H](CCCCN)NC(=O)[C@@H](NC(=O)[C@@H]1CCCN1C(=O)[C@H](CCC(=O)O)NC(=O)[C@@H](NC(=O)[C@H](Cc1ccccc1)NC(=O)[C@H](CCCCN)NC(=O)[C@H](CO)NC(=O)[C@@H]1CCCN1C(=O)[C@H](CC(=O)O)NC(=O)[C@H](CCC(N)=O)NC(=O)[C@@H](NC(=O)[C@H](Cc1ccccc1)NC(=O)[C@H](CC(=O)O)NC(=O)[C@H](CCC(N)=O)NC(=O)[C@H](CCCNC(=N)N)NC(=O)[C@H](CC(N)=O)NC(=O)[C@H](C)NC(=O)[C@H](CO)NC(=O)[C@H](CC(N)=O)NC(=O)[C@H](CO)NC(=O)[C@H](C)NC(=O)[C@H](C)NC(=O)[C@H](CC(=O)O)NC(=O)[C@H](CCCCN)NC(=O)[C@H](Cc1ccc(O)cc1)NC(=O)[C@H](Cc1ccc(O)cc1)NC(=O)[C@@H](N)CC(N)=O)[C@@H](C)O)[C@@H](C)O)C(C)C)C(N)=O [VP4-P5]
- Mean value of OD ratio (OD / OD of negative control), ELISA [1, 4]: 0.968

Compound: H-SKFTEPVKDVMIKSLPALN-NH2 [VP4-P6, NH2-SKFTEPVKDVMIKSLPALN-CONH2]
- Mean value of OD ratio (OD / OD of negative control), ELISA [1, 4]: 0.600

Compound: VP4CVB4: natural structural internal protein VP4 dissociated and purified from coxsackievirus CVB4 E2
- effect on CVB3/plasma induced IFNα production [3]: no change
- Mean value of OD ratio (OD / OD of negative control), ELISA [1, 5]: 0.711
- Mean value of OD ratio (OD / OD of negative control), ELISA [1, 4]: 1.964
- effect on CVB4/plasma induced IFNα production ([2]; protein preincubated 1 h at 37°C at different concentrations with plasma from healthy subjects, then CVB4, then PBMCs): Decrease
